# Experimental data published in patent US9249147B2, “Tyrosine kinase inhibitors” (CHEMBRIDGE CORPORATION, priority 2008, dated 2016).
# “And” between values parts separate entries of the source, which are not always exact repeats. Identical values can stand only once. Like-named read-outs stand apart in the source and are kept apart here.
# How the values were obtained:
# ALK = ALK (Homo sapiens, UniProt Q9UM73); assay: Invitrogen SelectScreen Z-lyte kinase assay, ALK; assay type: biochemical; parameters: purchased Invitrogen (SelectScreen service); conditions: 100 μM ATP
# ALK, sequence (Q9UM73 19-1620): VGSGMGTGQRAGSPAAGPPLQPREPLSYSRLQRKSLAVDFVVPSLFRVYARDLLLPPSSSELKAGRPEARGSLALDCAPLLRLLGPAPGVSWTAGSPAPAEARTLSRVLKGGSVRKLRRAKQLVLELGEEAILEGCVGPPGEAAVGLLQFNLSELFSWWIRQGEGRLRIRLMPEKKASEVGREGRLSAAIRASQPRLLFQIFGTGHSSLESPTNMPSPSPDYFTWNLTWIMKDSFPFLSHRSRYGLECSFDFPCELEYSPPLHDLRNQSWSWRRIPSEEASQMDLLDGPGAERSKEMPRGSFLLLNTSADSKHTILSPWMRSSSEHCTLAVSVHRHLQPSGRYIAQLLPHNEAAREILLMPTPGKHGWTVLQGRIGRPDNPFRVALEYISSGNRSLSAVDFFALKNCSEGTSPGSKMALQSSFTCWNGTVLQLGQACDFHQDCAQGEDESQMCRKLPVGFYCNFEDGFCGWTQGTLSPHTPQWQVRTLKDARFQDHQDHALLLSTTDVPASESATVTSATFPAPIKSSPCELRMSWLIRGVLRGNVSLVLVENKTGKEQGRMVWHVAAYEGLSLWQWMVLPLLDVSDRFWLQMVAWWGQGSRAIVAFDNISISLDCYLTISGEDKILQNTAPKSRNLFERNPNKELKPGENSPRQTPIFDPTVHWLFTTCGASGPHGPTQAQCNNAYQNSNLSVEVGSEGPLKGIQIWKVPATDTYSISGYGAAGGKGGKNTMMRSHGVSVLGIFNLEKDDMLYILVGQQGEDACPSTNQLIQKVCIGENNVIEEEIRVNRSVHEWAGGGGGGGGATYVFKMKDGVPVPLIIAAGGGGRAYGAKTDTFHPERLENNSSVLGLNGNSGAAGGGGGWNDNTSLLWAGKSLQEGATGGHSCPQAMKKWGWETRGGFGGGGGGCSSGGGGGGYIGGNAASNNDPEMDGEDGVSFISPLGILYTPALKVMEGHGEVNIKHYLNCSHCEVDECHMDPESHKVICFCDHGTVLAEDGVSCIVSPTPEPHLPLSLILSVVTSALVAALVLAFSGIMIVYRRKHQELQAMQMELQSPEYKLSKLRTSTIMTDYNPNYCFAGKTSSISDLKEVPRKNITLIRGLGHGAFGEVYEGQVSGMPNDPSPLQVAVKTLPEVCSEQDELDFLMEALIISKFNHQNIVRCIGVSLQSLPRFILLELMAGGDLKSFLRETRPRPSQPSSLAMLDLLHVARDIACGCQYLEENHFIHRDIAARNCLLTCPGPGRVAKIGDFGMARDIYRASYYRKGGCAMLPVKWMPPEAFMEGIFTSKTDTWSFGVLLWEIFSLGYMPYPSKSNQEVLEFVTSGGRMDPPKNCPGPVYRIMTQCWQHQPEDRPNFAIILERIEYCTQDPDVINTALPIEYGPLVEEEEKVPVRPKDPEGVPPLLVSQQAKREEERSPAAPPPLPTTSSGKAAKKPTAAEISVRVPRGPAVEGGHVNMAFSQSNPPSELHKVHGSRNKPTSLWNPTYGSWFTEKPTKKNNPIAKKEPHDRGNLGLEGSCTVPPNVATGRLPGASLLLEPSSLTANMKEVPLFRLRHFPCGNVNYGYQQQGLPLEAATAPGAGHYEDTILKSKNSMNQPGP
# Protocol: To evaluate selectivity versus other kinases, inhibition of various kinases by compound (II) was determined. In particular, IC50s for TrkA, Jak2, Axl tyrosine kinases were determined using ADP Hunter (DiscoverX) kinase assay. Single point profiling of compound (II) on 50 human tyrosine kinases and 10 Ser-Thr kinases was done at Upstate/Millipore by radiometric assay. […] The subset of the 520 kinases in the human kinome that were tested was strategically selected to cover most of the therapeutically relevant tyrosine kinases and to represent major branches of serine-threonine kinases.
# Compound (II) was a multitargeted tyrosine kinase (TK) inhibitor with a distinct pattern of inhibition focused on ALK, Trk family, Ros and Ret kinases. Invitrogen SelectScreen (Z-lyte assay) produced the following IC5O values for this set of kinases: ALK 9.75 nM, TrkA 1.5 nM, TrkB 1.4 nM, TrkC 1.8 nM, Ret 7.1 nM, Ros 1.8 nM (all measured at 100 μM ATP). […] About 70% of the 50 TKs tested have selectivity in excess of 50-fold for ALK and higher for Ret, Ros and Trk family members.
# [1] = Plasma Protein Binding (Human), equilibrium dialysis; assay type: in vitro ADME; conditions: 1.0E−05 M
# [2] = Pharmacokinetics study in CD-1 mice (IV, PO); assay type: in vivo; conditions: for MRT inf: read-out: MRT(0-∞); for concentration at 4 h: time point 4, Mean
# Protocol: A comprehensive PK study was run in CD-1 strain of mice with IV (1 mg/kg) and PO (5 mg/kg) routes of drug delivery and analytical data collection at 10 time points over 24 hours (Medicilon, Study CRL0703).
# Blood samples were collected by removing the eyeballs at pre-dose and 0.083, 0.25, 0.5, 1, 2, 4, 6, 8, and 24 hours post-dose. The plasma samples and the dose formulation were stored at −20° C. until bioanalysis.
# CYP1A2 = biological target: T1, CYP1A2 (Homo sapiens, UniProt P05177); assay: CYP1A2 Inhibition (recombinant, CEC substrate); assay type: in vitro ADME; conditions: for CYP1A2 % Inhibition of Control Values, 1st/2nd/3rd: listed as CRL241, mean
# T1 construct: purchased Cerep (contract assay, ADMET Study 13170)
# T1 sequence (P05177 1-516): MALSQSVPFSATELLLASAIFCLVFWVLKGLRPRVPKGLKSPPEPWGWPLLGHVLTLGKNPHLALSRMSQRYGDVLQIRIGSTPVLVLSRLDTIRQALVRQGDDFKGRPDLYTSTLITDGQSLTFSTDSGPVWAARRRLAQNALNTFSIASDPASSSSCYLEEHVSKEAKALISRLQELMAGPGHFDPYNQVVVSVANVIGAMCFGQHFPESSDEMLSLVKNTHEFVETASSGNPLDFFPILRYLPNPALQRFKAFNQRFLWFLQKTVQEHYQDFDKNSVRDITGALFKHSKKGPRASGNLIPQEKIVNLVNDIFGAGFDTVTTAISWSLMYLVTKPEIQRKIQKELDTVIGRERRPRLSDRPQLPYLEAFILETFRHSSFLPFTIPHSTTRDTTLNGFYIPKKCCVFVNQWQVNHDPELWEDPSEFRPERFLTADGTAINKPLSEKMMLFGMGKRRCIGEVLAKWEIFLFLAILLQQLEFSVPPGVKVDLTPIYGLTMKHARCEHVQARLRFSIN
# [3] = Pharmacokinetics study in CD-1 mice (IV, PO); assay type: in vivo; conditions: IV 1 mg/kg, time point 0.35, individual animals A-D
# JB6 = assay: Cell proliferation inhibition, ALCL line JB6; assay type: cell-based; conditions: Example 4, most sensitive cell lines, read-out: Proliferation IC50 JB6
# Excerpt: Cell proliferation inhibition assays were run for compound (II) with the five target NPM-ALK-dependent ALCL cell lines (Karpas 299, SuDHL-1, JB6, SupM2, UConn) and 12 unrelated cell lines (HEK293, CHO-K1, MCF7, HepG2, H292, H520, H1581, H596, H522, CHA-GO-K1, UMC-11, SK-MES1). […] The pronounced target cell-killing effect is also observed (molecular mechanisms to be determined).
# [4] = CD-1, mouse, plasma, iv, 1 mg/kg, IV 1 mg/kg, CD-1 mice, Mean
# [5] = CD-1, mouse, plasma, iv, 1 mg/kg, IV 1 mg/kg, individual animals A-D
# [6] = IV 1 mg/kg, individual animals A-D, 1 mg/kg
smiles,measurement,setting,value
Cc1ccc(F)cc1C[C@H](C)Nc1cc[nH]c(=O)c1-c1nc2cc3c(cc2[nH]1)C(=O)N(CCN1CCCC1)C3 [compound (II)],IC50,ALK,9.75 nM
same,"% Protein Bound, Mean",[1]; equilibrium dialysis,94.7%
same,"% Protein Bound, 1st/2nd","[1]; individual data, listed as CRL241",94.6% and 94.7%
same,AUC(0-inf),[2]; [4],105 ng·h/mL
same,Tmax,[2]; [4],4.8 min
same,AUC(0-t),"[2]; CD-1, mouse, plasma, iv, 1 mg/kg, IV 1 mg/kg, CD-1 mice, Mean, read-out: AUC(0-t)",102 ng·h/mL
same,Cmax,"[2]; CD-1, mouse, plasma, iv, 1 mg/kg, IV 1 mg/kg, CD-1 mice, Mean, read-out: Cmax",186 ng/mL
same,MRT inf,[2]; [4],1.36 h
same,AUC(0-inf),[2]; [5],102 ng·h/mL
same,Tmax,[2]; [5],4.98 min
same,AUC(0-t),"[2]; CD-1, mouse, plasma, iv, 1 mg/kg, IV 1 mg/kg, individual animals A-D, read-out: AUC(0-t)",100 ng·h/mL
same,Cmax,"[2]; CD-1, mouse, plasma, iv, 1 mg/kg, IV 1 mg/kg, individual animals A-D, read-out: Cmax",248 ng/mL
same,MRT inf,[2]; [5],1.37 h
same,concentration at […],"[2]; CD-1, mouse, plasma, iv, 1 mg/kg, IV 1 mg/kg, time point 0.083, Mean",186 ng/mL
same,concentration at […],"[2]; CD-1, mouse, plasma, iv, 1 mg/kg, IV 1 mg/kg, time point 0.083, individual animals A-D",163 ng/mL
same,concentration at […],"[2]; CD-1, mouse, plasma, iv, 1 mg/kg, IV 1 mg/kg, time point 0.35, Mean",74 ng/mL
same,concentration at 0.5 h,"[2]; CD-1, mouse, plasma, iv, 1 mg/kg, IV 1 mg/kg, time point 0.5, Mean",32.9 ng/mL
same,concentration at 0.5 h,"[2]; CD-1, mouse, plasma, iv, 1 mg/kg, IV 1 mg/kg, time point 0.5, individual animals A-D",36.8 ng/mL
same,concentration at 1 h,"[2]; CD-1, mouse, plasma, iv, 1 mg/kg, IV 1 mg/kg, time point 1, Mean",18.9 ng/mL
same,concentration at 1 h,"[2]; CD-1, mouse, plasma, iv, 1 mg/kg, IV 1 mg/kg, time point 1, individual animals A-D",14.1 ng/mL
same,concentration at 2 h,"[2]; CD-1, mouse, plasma, iv, 1 mg/kg, IV 1 mg/kg, time point 2, Mean",10.2 ng/mL
same,concentration at 2 h,"[2]; CD-1, mouse, plasma, iv, 1 mg/kg, IV 1 mg/kg, time point 2, individual animals A-D",10.4 ng/mL
same,concentration at 4 h,"[2]; CD-1, mouse, plasma, iv, 1 mg/kg, IV 1 mg/kg",5.05 ng/mL
same,concentration at 6 h,"[2]; CD-1, mouse, plasma, iv, 1 mg/kg, IV 1 mg/kg, time point 6, Mean",2.18 ng/mL
same,concentration at 6 h,"[2]; CD-1, mouse, plasma, iv, 1 mg/kg, IV 1 mg/kg, time point 6, individual animals A-D",2.13 ng/mL
same,concentration at […],"[2]; CD-1, mouse, plasma, po, 5 mg/kg, PO 5 mg/kg, time point 0.083, Mean",1.24 ng/mL
same,concentration at […],"[2]; CD-1, mouse, plasma, po, 5 mg/kg, PO 5 mg/kg, time point 0.083, individual animals A-D",2.07 ng/mL
same,concentration at […],"[2]; CD-1, mouse, plasma, po, 5 mg/kg, PO 5 mg/kg, time point 0.35, individual animals A-D",1.21 ng/mL
same,concentration at 2 h,"[2]; CD-1, mouse, plasma, po, 5 mg/kg, PO 5 mg/kg, time point 2, Mean",1.01 ng/mL
same,concentration at 2 h,"[2]; CD-1, mouse, plasma, po, 5 mg/kg, PO 5 mg/kg, time point 2, individual animals A-D",1.47 ng/mL
same,concentration at 4 h,"[2]; CD-1, mouse, plasma, po, 5 mg/kg, PO 5 mg/kg",3.64 ng/mL
same,concentration at 6 h,"[2]; CD-1, mouse, plasma, po, 5 mg/kg, PO 5 mg/kg, time point 6, individual animals A-D",1.34 ng/mL
same,CL2,"[2]; IV 1 mg/kg, CD-1 mice, Mean",159 mL/min/kg
same,V2,"[2]; IV 1 mg/kg, CD-1 mice, Mean",18.63 L/kg
same,AUC(0-t),[2]; [6],96.033 ng·h/mL and 110.999 ng·h/mL and 102.243 ng·h/mL
same,AUC(0-∞),[2]; [6],97.734 ng·h/mL and 116.619 ng·h/mL and 105.516 ng·h/mL
same,CL2,[2]; [6],163.5 mL/min/kg and 170.53 mL/min/kg and 142.9 mL/min/kg and 158 mL/min/kg
same,Cmax,[2]; [6],144.182 ng/mL and 163.492 ng/mL and 186.531 ng/mL
same,MRT(0-∞),[2]; [6],1.295 h and 1.614 h and 1.176 h
same,T1/2z,[2]; [6],1.16 h and 1.124 h and 1.81 h and 1.395 h
same,V2,[2]; [6],16.427 L/kg and 16.598 L/kg and 22.401 L/kg and 19.076 L/kg
same,Plasma Concentration,"[2]; IV 1 mg/kg, time point 0.083, individual animals A-D, 1 mg/kg",186.53 ng/mL and 248.44 ng/mL and 144.18 ng/mL
same,Plasma Concentration,"[2]; IV 1 mg/kg, time point 0.5, individual animals A-D, 1 mg/kg",29.12 ng/mL and 31.99 ng/mL and 33.27 ng/mL
same,Plasma Concentration,"[2]; IV 1 mg/kg, time point 1, individual animals A-D, 1 mg/kg",19.36 ng/mL and 19.24 ng/mL and 22.93 ng/mL
same,Plasma Concentration,"[2]; IV 1 mg/kg, time point 2, individual animals A-D, 1 mg/kg",8.73 ng/mL and 9.58 ng/mL and 12.30 ng/mL
same,Plasma Concentration,"[2]; IV 1 mg/kg, time point 4, individual animals A-D, 1 mg/kg",8.09 ng/mL and 4.47 ng/mL and 3.14 ng/mL and 3.60 ng/mL
same,Plasma Concentration,"[2]; IV 1 mg/kg, time point 6, individual animals A-D, 1 mg/kg",1.81 ng/mL and 3.23 ng/mL and 1.77 ng/mL
same,Plasma Concentration,"[2]; IV 1 mg/kg, time point 8, individual animals A-D",BLQ
same,Plasma Concentration,"[2]; IV 1 mg/kg, time point 24, individual animals A-D",BLQ
same,Volume of distribution relative to total body water,"[2]; IV, mice",26 fold
same,Plasma Concentration,"[2]; PO 5 mg/kg, time point 0.083, individual animals A-D, 5 mg/kg",2.19 ng/mL and BLQ (2×)
same,Plasma Concentration,"[2]; PO 5 mg/kg, time point 0.35, individual animals A-D, 5 mg/kg",BLQ
same,Plasma Concentration,"[2]; PO 5 mg/kg, time point 0.5, individual animals A-D",BLQ
same,Plasma Concentration,"[2]; PO 5 mg/kg, time point 1, individual animals A-D",BLQ
same,Plasma Concentration,"[2]; PO 5 mg/kg, time point 2, individual animals A-D, 5 mg/kg",1.00 ng/mL and BLQ (2×)
same,Plasma Concentration,"[2]; PO 5 mg/kg, time point 4, individual animals A-D, 5 mg/kg",6.06 ng/mL and 1.90 ng/mL and 1.22 ng/mL and 5.39 ng/mL
same,Plasma Concentration,"[2]; PO 5 mg/kg, time point 6, individual animals A-D, 5 mg/kg",BLQ
same,Plasma Concentration,"[2]; PO 5 mg/kg, time point 8, individual animals A-D",BLQ
same,Plasma Concentration,"[2]; PO 5 mg/kg, time point 24, individual animals A-D",BLQ
same,half-life,"[2]; mouse, plasma, IV 1 mg/kg, CD-1 mice, Mean, read-out: T1/2z (plasma half-life) (converted)",1.37 h
same,bioavailability,"[2]; mouse, plasma, PO 5 mg/kg vs IV 1 mg/kg, CD-1 mice",< 1%
same,CYP1A2 inhibition,CYP1A2; 1 μM and 5 μM,No inhibition was detected
same,"CYP1A2 % Inhibition of Control Values, 1st/2nd/3rd","CYP1A2; 1.0E−06 M, Table 5B individual results",106.6%
same,"CYP1A2 % Inhibition of Control Values, 1st/2nd/3rd","CYP1A2; 5.0E−06 M, Table 5B individual results",90.3%
same,activity at 1 µM,"CYP1A2; recombinant CYP1A2, probe CEC, 1.0E−06 M, Table 5B individual results, read-out: CYP1A2 % Inhibition of Control Values, 1st/2nd/3rd",110%
same,activity at 5 µM,"CYP1A2; recombinant CYP1A2, probe CEC, 5.0E−06 M, Table 5B individual results, read-out: CYP1A2 % Inhibition of Control Values, 1st/2nd/3rd",92.1%
same,inhibition at 1 µM,"CYP1A2; recombinant CYP1A2, probe CEC, 1.0E−06 M, read-out: CYP1A2 % Inhibition of Control Values",-7%
same,inhibition at 5 µM,"CYP1A2; recombinant CYP1A2, probe CEC, 5.0E−06 M, read-out: CYP1A2 % Inhibition of Control Values",10%
same,Plasma Concentration,[3],100.41 ng/mL and 89.28 ng/mL and 41.61 ng/mL and 64.53 ng/mL
same,IC50,JB6,5 to 10 nM
